Patent US7179814B2, “Agents for controlling plant pests” (priority 1998, dated 2007)
Like-named read-outs stand apart in the source and are kept apart here.

How the values were obtained:
Assay type in all cases: in vivo
[1] = test system: Diabrotica balteata larvae in soil; assay: Critical concentration test/soil insects, Diabrotica balteata; conditions: 20.0 ppm in soil, 7 days after infestation; for pest or weed control at 20 ppm: Diabrotica balteata, 168 h, read-out: Kill in %
Procedure: (§1) To produce a suitable preparation of active compound, 1 part by weight of the active compound or the active compound mixture is mixed with the stated amounts of solvent and emulsifier, and the concentrate is diluted with water to the desired concentration.
(§2) The active compound preparation is mixed intimately with soil. Here, the concentration of the active compound in the preparation is almost irrelevant; only the amount by weight of active compound or active compound mixture per volume unit of soil, which is stated in ppm (mg/l), matters.
Soil is filled into 0.5 l pots and these are allowed to stand at 20° C. Immediately after preparation, 5 pre-germinated maize corns are placed into each pot. After 2 days, the test insects are placed into the treated soil. After a further 7 days, the kill in % is determined. 100% means that all test insects have been killed; 0% means that none of the test insects have been killed.

Puccinia recondita = assay: Puccinia test (wheat)/protective; conditions: 62.5 g/ha, 10 days after inoculation
Procedure: (§3) To produce a suitable preparation of active compound, 1 part by weight of active compound or active compound combination is mixed with the stated amounts of solvent and emulsifier, and the concentrate is diluted with water to the desired concentration, or a commercial formulation of active compound or active compound combination is diluted with water to the desired concentration.
(§4) To test for protective activity, young plants are sprayed with the active compound preparation at the stated application rate. After the spray coating has dried on, the plants are sprayed with a conidia suspension of Puccinia recondita. The plants remain in an incubation cabin at 20° C. and 100% relative atmospheric humidity for 48 hours.
The plants are then placed in a greenhouse at a temperature of approximately 20° C. and a relative atmospheric humidity of 80% to promote the development of rust pustules.
(§5) Evaluation is carried out 10 days after the inoculation. 0% means an efficacy which corresponds to that of the control, whereas an efficacy of 100% means that no infection is observed.

Spodoptera frugiperda = assay: Critical concentration test/soil insects, Spodoptera frugiperda; conditions: 120 h, 20.00 ppm in soil, 5 days after infestation, read-out: Kill in %
Procedure: as §1, §2
Soil is filled into 0.5 l pots and these are allowed to stand at 20° C. Immediately after preparation, 3 pre-germinated maize corns are placed into each pot. After the maize corns have emerged, boring sleeves are placed onto the pots. 9 days after preparation, the maize is populated with the test insects. After a further 5 days, the kill in % is determined. 100% means that all test insects have been killed; 0% means that the number of insects which are still alive is the same as for the untreated control.

Pyrenophora teres = Pyrenophora teres test (barley)/protective; conditions: 62.5 g/ha, single active compound, 7 days after inoculation
Procedure: as §3
as §4, with “Pyrenophora teres.” for “Puccinia recondita.”
The plants are then placed in a greenhouse at a temperature of approximately 20° C. and a relative atmospheric humidity of approximately 80%.
(§6) Evaluation is carried out 7 days after the inoculation. 0% means an efficacy which corresponds to that of the control, whereas an efficacy of 100% means that no infection is observed.

[2] = test system: green rice leaf hopper (Nephotettix cincticeps); assay: Nephotettix test (rice seedling dip)
Procedure: (§7) To produce a suitable preparation of active compound, 1 part by weight of an active compound or an active compound combination is mixed with the stated amounts of solvent and emulsifier, and the concentrate is diluted with water to the desired concentration.
Rice seedlings (Oryza sativa) are treated by being dipped into the active compound preparation of the desired concentration and are populated with the green rice leaf hopper (Nephotettix cincticeps) while the leaves are still moist.
After the desired period of time, the kill in % is determined. 100% means that all the leaf hoppers have been killed; 0% means that none of the leaf hoppers have been killed.

[3] = test system: Phaedon cochleariae larvae; assay: Critical concentration test/root-systemic action, Phaedon cochleariae; conditions: 72 h, 20.00 ppm in soil, root-systemic, 3 days after infestation, read-out: Kill in %
Procedure: as §1, §2
Soil is filled into 250 ml pots and these are planted with cabbage (Brassica oleracea). The active compound or the active compound combination can thus be taken up by the plant roots from the soil and transported into the leaves.
After 7 days, the leaves are populated with the abovementioned test animals. After a further 3 days, the kill in % is determined. 100% means that all test insects have been killed; 0% means that the number of insects which are still alive is the same as in the untreated control.

Phytophthora infestans = conditions: single active compound
[4] = test system: caterpillars of the diamondback moth (Plutella xylostella); assay: Plutella test (cabbage leaf dip)
Procedure: as §7
Cabbage leaves (Brassica oleracea) are treated by being dipped into the preparation of active compound of the desired concentration and are populated with caterpillars of the diamondback moth (Plutella xylostella) while the leaves are still moist.
After the desired period of time, the kill in % is determined 100% means that all caterpillars have been killed; 0% means that none of the caterpillars have been killed.

[5] = test system: Heliothis virescens caterpillars; assay: Heliothis virescens test (soya bean shoot dip)
Procedure: as §7
Soya bean shoots (Glycine max) are treated by being dipped into the active compound preparation of the desired concentration and are populated with Heliothis virescens caterpillars while the leaves are still moist.
After the desired period of time, the kill in % is determined. 100% means that all caterpillars have been killed; 0% means that none of the caterpillars have been killed.

Sphaerotheca fuliginea = assay: Sphaerotheca test (cucumber)/protective; conditions: 10 g/ha, single active compound, 10 days after inoculation
Procedure: as §3
To test for protective activity, young plants are sprayed with the commercial active compound preparation at the stated application rate. After the spray coating has dried on, the plants are inoculated with an aqueous spore suspension of Sphaerotheca fuliginea. The plants are then placed in a greenhouse at approximately 23° C. and a relative atmospheric humidity of approximately 70%.
as §5

[6] = test system: larvae of the mustard beetle (Phaedon cochleariae); assay: Phaedon larvae test (cabbage leaf dip)
Procedure: as §7
Cabbage leaves (Brassica oleracea) are treated by being dipped into the preparation of active compound of the desired concentration and are populated with larvae of the mustard beetle (Phaedon cochleariae) while the leaves are still moist.
After the desired period of time, the kill in % is determined. 100% means that all beetle larvae have been killed; 0% means that none of the beetle larvae have been killed.

Fusarium culmorum = Fusarium culmorum test (wheat)/seed treatment; conditions: 75 g/ha, dry seed dressing, approximately 3 weeks after sowing
Procedure: The active compounds are applied as a dry dressing. They are prepared by extending the active compound in question with ground minerals to give a finely pulverulent mixture which ensures even distribution on the surface of the seeds.
For the dressing, the infected seeds are shaken with the dressing in a closed glass bottle for 3 minutes.
2×100 seeds of the wheat are sown at a depth of 1 cm into standard soil, and the wheat is cultivated in a greenhouse at a temperature of approximately 18° C. and at a relative atmospheric humidity of approximately 95% in seed containers receiving 15 hours of light per day.
The evaluation of the plants for symptoms is carried out approximately 3 weeks after sowding. 0% means an efficacy which corresponds to that of the control, whereas an efficacy of 100% means that no infection is observed.

[7] = test system: Diabrotica balteata - larvae in the soil; assay: Critical concentration test/soil insects, Diabrotica balteata (Example Q); conditions: 10.00 ppm in soil; efficacy calculated from number of emerged maize plants
Procedure: To produce a suitable preparation of active compound, 1 part by weight of active compound is mixed with the stated amount of solvent, the stated amount of emulsifier is added and the concentrate is diluted with water to the desired concentration. Here, the concentration of the active compound in the preparation is almost irrelevant; only the amount by weight of active compound per volume unit of soil, which is stated in ppm (mg/l), matters. The soil is filled into 0.5 l pots and these are allowed to stand at 20° C.
Immediately after preparation, 5 maize corns are placed into each pot. After 3 days, the test insects are placed into the treated soil. After a further 7 days, the efficacy is determined. The efficacy is calculated from the number of maize plants which have emerged.

Botrytis cinerea = assay: Botrytis test (bean)/protective; conditions: 10 g/ha, single active compound, 2 days after inoculation
Procedure: as §3
To test for protective activity, young plants are sprayed with the active compound preparation at the stated application rate. After the spray coating has dried on, 2 small pieces of agar colonized by Botrytis cinerea are placed onto each leaf. The inoculated plants are placed in a dark chamber at approximately 20° C. and 100% relative atmospheric humidity.
2 days after the inoculation, the size of the disease spots on the leaves is evaluated. 0% means an efficacy which corresponds to that of the control, whereas an efficacy of 100% means that no infection is observed.

[8] = test system: Erysiphe graminis f.sp. hordei; assay: Erysiphe test (barley)/protective; conditions: 62.5 g/ha, single active compound, 7 days after inoculation
Procedure: as §3
(§8) To test for protective activity, young plants are sprayed with the preparation of active compound at the stated application rate.
After the spray coating has dried on, the plants are dusted with spores of Erysiphe graminis f.sp. hordei.
(§9) The plants are placed in a greenhouse at a temperature of approximately 20° C. and a relative atmospheric humidity of approximately 80% to promote the development of mildew pustules.
as §6

[9] = test system: Erysiphe graminis f.sp. tritici; assay: Erysiphe test (wheat)/protective; conditions: single active compound
Procedure: as §3, §8
After the spray coating has dried on, the plants are dusted with spores of Erysiphe graminis f.sp. tritici.
as §9, §6

`CCCC1COC(Cn2cncn2)(c2ccc(Cl)cc2Cl)O1` (stereo not shown) [propiconazole] was tested, and the pest or weed control at 20 ppm [1] was 0%, the Efficacy in % (Puccinia recondita) was 75% and the pest or weed control at 20 ppm (Spodoptera frugiperda) was 0%. The “Efficacy in % calculated/found” value (Pyrenophora teres) was 0%, the Kill in % ([2]; concentration 0.004 %) was 0% and the pest or weed control at 20 ppm [3] was 0%. For the same molecule, the Efficacy in % (Phytophthora infestans; 500 g/ha, 3 days after inoculation) was 5%.

With `CC(C)(C)C(O)(CCc1ccc(Cl)cc1)Cn1cncn1` (stereo not shown) [tebuconazole] the pest or weed control at 20 ppm [1] was 0%, the pest or weed control at 20 ppm (Spodoptera frugiperda) was 0% and the “Efficacy in % calculated/found” value (Pyrenophora teres) was 50%. It also gave a pest or weed control at 20 ppm [3] of 0%.

tolylfluanid showed a Kill in % [1] of 0%, a Kill in % ([4]; concentration 0.02 %) of 0% and a Kill in % ([5]; concentration 0.02 %) of 0%. It also gave a Kill in % ([2]; concentration 0.02 %) of 0% and an Efficacy in % (Phytophthora infestans; 50 g/ha) of 34%.

`Cc1ccc(C(C)NC(=O)C(NC(=O)OC(C)C)C(C)C)cc1` (racemic) [SZX722] showed an Efficacy in % (Phytophthora infestans; 10 g/ha) of 88%.

`CC(C1CC1)C(O)(Cn1cncn1)c1ccc(Cl)cc1` (stereo not shown) [cyproconazole] gave an Efficacy in % (Sphaerotheca fuliginea) of 70%, a pest or weed control at 20 ppm [1] of 0% and a Kill in % ([6]; concentration 0.004 %) of 10%. The pest or weed control at 20 ppm (Spodoptera frugiperda) was 0%, the Kill in % ([4]; concentration 0.004 %) was 0% and the Kill in % ([5]; concentration 0.004 %) was 0%. It also gave an Efficacy in % (Fusarium culmorum) of 1%.

With `OC(Cc1ccccc1Cl)(Cn1nc[nH]c1=S)C1(Cl)CC1` (stereo not shown) [(49)] the “Kill in % at active compound concentrations in ppm” value [7] was 10.00 ppm = 0%.

Molecule `N#Cc1c[nH]cc1-c1cccc2c1OC(F)(F)O2` [fludioxonil] has a pest or weed control at 20 ppm [1] of 0%, an Efficacy in % (Botrytis cinerea) of 40% and a Kill in % ([2]; concentration 0.02 %) of 0%. The Efficacy in % (Fusarium culmorum) was 0%.

For `CO/N=C(/C(=O)OC)c1ccccc1COc1ccccc1C` [kresoxim-methyl], the “Efficacy in % calculated/found” value [8] was 0%, the “Efficacy in % calculated/found” value ([9]; 18.75 g/ha) was 43% and the “Efficacy in % calculated/found” value ([9]; 62.5 g/ha, 7 days after inoculation) was 79%. It also gave a pest or weed control at 20 ppm [1] of 0% and a Kill in % ([6]; concentration 0.1 %) of 0%.
